Series [1] is described as follows: Bioavailability on co-administration with a proton-pump inhibitor. It counts as in vivo. Particulars: co-administered with a proton-pump inhibitor.
The nature of series [2]: Solubility in a basic environment, such as the intestine. The class given is physicochemical.

As to `COCCOc1ccc(N2CCN(CCn3ncc4c3nc(N)n3nc(-c5ccco5)nc43)CC2)cc1` [Formula IA, preladenant], the Bioavailability result in series [1] is “sharp drop in bioavailability”. Further, the Solubility result in series [2] is “poorly soluble”.
For the molecule `CC#Cc1nc2c3cnn(CCN4CCN(c5cc6c(C)noc6cc5F)CC4)c3nc(N)n2n1` [Formula IB], the Solubility entry in series [2] is on record as “poorly soluble”.

Source of the values: patent US10207002B2, “Sustained release formulation and tablets prepared therefrom” (Merck Sharp & Dohme Corp., priority 2015, dated 2019).
